The CheMixHub viscosity set
Where “and” joins values, the source holds several entries; their conditions need not be identical. Equal values may be shown once. ± gives the uncertainty stated by the source.

Assay: xn = mol fraction of the nth substance listed

SMILES: CN(C)CCO + O
- viscosity (293.15 K, 101 kPa, x1 = 0.08): 4.245 ± 0.025 mPa·s
- viscosity (293.15 K, 101.3 kPa, x1 = 0.1001): 6.55 ± 0.06 mPa·s
- viscosity (293.15 K, 101.3 kPa, x1 = 0.1999): 10.56 ± 0.09 mPa·s
- viscosity (293.15 K, 101.3 kPa, x1 = 0.3): 13.17 ± 0.11 mPa·s
- viscosity (293.15 K, 101.3 kPa, x1 = 0.4): 14.4 ± 0.12 mPa·s
- viscosity (293.15 K, 101.3 kPa, x1 = 0.5): 14.13 ± 0.12 mPa·s
- viscosity (293.15 K, 101.3 kPa, x1 = 0.6001): 12.81 ± 0.11 mPa·s
- viscosity (293.15 K, 101.3 kPa, x1 = 0.6998): 10.51 ± 0.09 mPa·s
- viscosity (293.15 K, 101.3 kPa, x1 = 0.8): 7.76 ± 0.07 mPa·s
- viscosity (293.15 K, 101.3 kPa, x1 = 0.9001): 5.2 ± 0.05 mPa·s
- viscosity (298.15 K, 101 kPa, x1 = 0.08): 3.487 ± 0.023 mPa·s
- viscosity (303.15 K, 101 kPa, x1 = 0.03444): 1.45 ± 0.06 mPa·s
- viscosity (303.15 K, 101 kPa, x1 = 0.05): 1.921 ± 0.018 mPa·s
- viscosity (303.15 K, 101 kPa, x1 = 0.07971): 2.95 ± 0.12 mPa·s and 2.92 ± 0.06 mPa·s
- viscosity (303.15 K, 101 kPa, x1 = 0.08): 2.898 ± 0.021 mPa·s
- viscosity (303.15 K, 101 kPa, x1 = 0.1003): 3.662 ± 0.027 mPa·s
- viscosity (303.15 K, 101 kPa, x1 = 0.1187): 4.64 ± 0.1 mPa·s
- viscosity (303.15 K, 101 kPa, x1 = 0.1419): 5.19 ± 0.21 mPa·s
- viscosity (303.15 K, 101 kPa, x1 = 0.1993): 7.496 ± 0.047 mPa·s
- viscosity (303.15 K, 101 kPa, x1 = 0.2947): 9.838 ± 0.062 mPa·s
- viscosity (303.15 K, 101 kPa, x1 = 0.3489): 10.24 ± 0.066 mPa·s
- viscosity (303.15 K, 101 kPa, x1 = 0.4004): 10.1 ± 0.066 mPa·s
- viscosity (303.15 K, 101 kPa, x1 = 0.453): 9.546 ± 0.063 mPa·s
- viscosity (303.15 K, 101 kPa, x1 = 0.504): 8.735 ± 0.058 mPa·s
- viscosity (303.15 K, 101 kPa, x1 = 0.6047): 7.076 ± 0.048 mPa·s
- viscosity (303.15 K, 101 kPa, x1 = 0.7044): 5.567 ± 0.038 mPa·s
- viscosity (303.15 K, 101 kPa, x1 = 0.8062): 4.37 ± 0.03 mPa·s
- viscosity (303.15 K, 101 kPa, x1 = 0.9046): 3.485 ± 0.025 mPa·s
- viscosity (303.15 K, 101.3 kPa, x1 = 0.1001): 4 ± 0.04 mPa·s
- viscosity (303.15 K, 101.3 kPa, x1 = 0.1999): 6.7 ± 0.06 mPa·s
- viscosity (303.15 K, 101.3 kPa, x1 = 0.3): 8.53 ± 0.07 mPa·s
- viscosity (303.15 K, 101.3 kPa, x1 = 0.4): 9.37 ± 0.08 mPa·s
- viscosity (303.15 K, 101.3 kPa, x1 = 0.5): 9.3 ± 0.08 mPa·s
- viscosity (303.15 K, 101.3 kPa, x1 = 0.6001): 8.61 ± 0.08 mPa·s
- viscosity (303.15 K, 101.3 kPa, x1 = 0.6998): 7.1 ± 0.06 mPa·s
- viscosity (303.15 K, 101.3 kPa, x1 = 0.8): 5.27 ± 0.05 mPa·s
- viscosity (303.15 K, 101.3 kPa, x1 = 0.9001): 3.53 ± 0.04 mPa·s
- viscosity (308.15 K, 101 kPa, x1 = 0.05): 1.657 ± 0.015 mPa·s
- viscosity (308.15 K, 101 kPa, x1 = 0.08): 2.44 ± 0.02 mPa·s
- viscosity (308.15 K, 101 kPa, x1 = 0.1003): 3.042 ± 0.023 mPa·s
- viscosity (308.15 K, 101 kPa, x1 = 0.1993): 6.012 ± 0.044 mPa·s
- viscosity (308.15 K, 101 kPa, x1 = 0.2947): 7.806 ± 0.056 mPa·s
- viscosity (308.15 K, 101 kPa, x1 = 0.3489): 8.126 ± 0.058 mPa·s
- viscosity (308.15 K, 101 kPa, x1 = 0.4004): 8.019 ± 0.057 mPa·s
- viscosity (308.15 K, 101 kPa, x1 = 0.453): 7.626 ± 0.054 mPa·s
- viscosity (308.15 K, 101 kPa, x1 = 0.504): 7.048 ± 0.05 mPa·s
- viscosity (308.15 K, 101 kPa, x1 = 0.6047): 5.815 ± 0.041 mPa·s
- viscosity (308.15 K, 101 kPa, x1 = 0.7044): 4.675 ± 0.033 mPa·s
- viscosity (308.15 K, 101 kPa, x1 = 0.8062): 3.722 ± 0.026 mPa·s
- viscosity (308.15 K, 101 kPa, x1 = 0.9046): 3.015 ± 0.022 mPa·s
- viscosity (313.15 K, 101 kPa, x1 = 0.03444): 1.14 ± 0.05 mPa·s
- viscosity (313.15 K, 101 kPa, x1 = 0.07971): 2.01 ± 0.04 mPa·s
- viscosity (313.15 K, 101 kPa, x1 = 0.1003): 2.555 ± 0.02 mPa·s
- viscosity (313.15 K, 101 kPa, x1 = 0.1187): 3.19 ± 0.07 mPa·s
- viscosity (313.15 K, 101 kPa, x1 = 0.1993): 4.87 ± 0.035 mPa·s
- viscosity (313.15 K, 101 kPa, x1 = 0.2947): 6.256 ± 0.045 mPa·s
- viscosity (313.15 K, 101 kPa, x1 = 0.3489): 6.525 ± 0.046 mPa·s
- viscosity (313.15 K, 101 kPa, x1 = 0.4004): 6.443 ± 0.046 mPa·s
- viscosity (313.15 K, 101 kPa, x1 = 0.453): 6.189 ± 0.044 mPa·s
- viscosity (313.15 K, 101 kPa, x1 = 0.504): 5.741 ± 0.041 mPa·s
- viscosity (313.15 K, 101 kPa, x1 = 0.6047): 4.809 ± 0.034 mPa·s
- viscosity (313.15 K, 101 kPa, x1 = 0.7044): 3.934 ± 0.028 mPa·s
- viscosity (313.15 K, 101 kPa, x1 = 0.8062): 3.184 ± 0.023 mPa·s
- viscosity (313.15 K, 101 kPa, x1 = 0.9046): 2.615 ± 0.019 mPa·s
- viscosity (313.15 K, 101.3 kPa, x1 = 0.1001): 2.56 ± 0.03 mPa·s
- viscosity (313.15 K, 101.3 kPa, x1 = 0.1999): 4.2 ± 0.04 mPa·s
- viscosity (313.15 K, 101.3 kPa, x1 = 0.3): 5.23 ± 0.05 mPa·s
- viscosity (313.15 K, 101.3 kPa, x1 = 0.4): 5.7 ± 0.05 mPa·s
- viscosity (313.15 K, 101.3 kPa, x1 = 0.5): 5.61 ± 0.05 mPa·s
- viscosity (313.15 K, 101.3 kPa, x1 = 0.6001): 5.08 ± 0.05 mPa·s
- viscosity (313.15 K, 101.3 kPa, x1 = 0.6998): 4.26 ± 0.04 mPa·s
- viscosity (313.15 K, 101.3 kPa, x1 = 0.9001): 2.4 ± 0.03 mPa·s
- viscosity (318.15 K, 101 kPa, x1 = 0.05): 1.271 ± 0.013 mPa·s
- viscosity (318.15 K, 101 kPa, x1 = 0.08): 1.791 ± 0.019 mPa·s
- viscosity (318.15 K, 101 kPa, x1 = 0.1003): 2.183 ± 0.018 mPa·s
- viscosity (318.15 K, 101 kPa, x1 = 0.1993): 4.018 ± 0.029 mPa·s
- viscosity (318.15 K, 101 kPa, x1 = 0.2947): 5.104 ± 0.037 mPa·s
- viscosity (318.15 K, 101 kPa, x1 = 0.3489): 5.309 ± 0.038 mPa·s
- viscosity (318.15 K, 101 kPa, x1 = 0.4004): 5.268 ± 0.038 mPa·s
- viscosity (318.15 K, 101 kPa, x1 = 0.453): 5.067 ± 0.036 mPa·s
- viscosity (318.15 K, 101 kPa, x1 = 0.504): 4.741 ± 0.034 mPa·s
- viscosity (318.15 K, 101 kPa, x1 = 0.6047): 4.041 ± 0.029 mPa·s
- viscosity (318.15 K, 101 kPa, x1 = 0.7044): 3.341 ± 0.024 mPa·s
- viscosity (318.15 K, 101 kPa, x1 = 0.8062): 2.756 ± 0.02 mPa·s
- viscosity (318.15 K, 101 kPa, x1 = 0.9046): 2.293 ± 0.018 mPa·s
- viscosity (323.15 K, 101 kPa, x1 = 0.03444): 0.91 ± 0.04 mPa·s
- viscosity (323.15 K, 101 kPa, x1 = 0.07971): 1.56 ± 0.06 mPa·s and 1.51 ± 0.03 mPa·s
- viscosity (323.15 K, 101 kPa, x1 = 0.08): 1.557 ± 0.018 mPa·s
- viscosity (323.15 K, 101 kPa, x1 = 0.1187): 2.31 ± 0.05 mPa·s
- viscosity (323.15 K, 101 kPa, x1 = 0.1419): 2.51 ± 0.1 mPa·s
- viscosity (323.15 K, 101.3 kPa, x1 = 0.1999): 3.19 ± 0.03 mPa·s
- viscosity (323.15 K, 101.3 kPa, x1 = 0.3): 3.69 ± 0.03 mPa·s
- viscosity (323.15 K, 101.3 kPa, x1 = 0.4): 3.86 ± 0.04 mPa·s
- viscosity (323.15 K, 101.3 kPa, x1 = 0.5): 3.65 ± 0.04 mPa·s
- viscosity (323.15 K, 101.3 kPa, x1 = 0.6001): 3.16 ± 0.03 mPa·s
- viscosity (323.15 K, 101.3 kPa, x1 = 0.6998): 2.64 ± 0.03 mPa·s
- viscosity (323.15 K, 101.3 kPa, x1 = 0.8): 2.12 ± 0.03 mPa·s
- viscosity (323.15 K, 101.3 kPa, x1 = 0.9001): 1.84 ± 0.03 mPa·s
